The nature of series [1]: in vivo. As to conditions: C57BL/6, mouse, 18 mg/kg.
Description: (§1) A single-dose pharmacokinetic (PK) study was performed on healthy C57BL/6 mice to compare 1ME3CA and 3-IAld at 0.36 mg/topo dose. Untreated naïve mice were used as the control. […] Blood, obtained by cardiac puncture and collected into EDTA-containing tubes, and organs (brain, lung, intestine, liver and kidney) were assessed. All samples were stored at −80° C. until use. To evaluate 1ME3CA and 3-IAld for functional activity, the expression of AhR-downstream genes were concomitantly evaluated in these mice.
Series [2] deals with AhR. In words: AhR luciferase reporter in mouse hepatoma cells H1L6.1c3. The series is classed as cell-based. Details: dose or concentration left out as unconfirmed. The following applies: higher RLU at 2 h lasting until 24h. How it is done: The ability of 1ME3CA was comparatively assessed here in mouse hepatoma cells (H1L6.1c3), kindly provided by Allison K. Ehrlich (Meyer Hall, University of California, Davis, United States), containing the stably integrated AhR xenobiotic responsive element driven by a firefly luciferase reporter plasmid, pGudLuc6.167. Cells were plated in MEMA (Gibco), supplemented with 10% fetal serum bovine and 1% penicillin-streptomycin solution, in 24-well plate and stimulated with different concentrations of either 3-IAld or 1ME3CA. Luciferase activity, calculated as relative light units (RLU) per microgram of protein and expressed as fold induction, was carried at 2 or 24 hours of exposure.
In general terms: A reporter such as luciferase makes a cellular process visible.

Series [3] can be described thus: single-dose pharmacokinetic study in healthy C57BL/6 mice, tissues and serum by mass spectrometry.
Description: as §1
For series [4], the target named is T1, AhR (Homo sapiens, UniProt P35869).
T1 sequence (P35869 11-848): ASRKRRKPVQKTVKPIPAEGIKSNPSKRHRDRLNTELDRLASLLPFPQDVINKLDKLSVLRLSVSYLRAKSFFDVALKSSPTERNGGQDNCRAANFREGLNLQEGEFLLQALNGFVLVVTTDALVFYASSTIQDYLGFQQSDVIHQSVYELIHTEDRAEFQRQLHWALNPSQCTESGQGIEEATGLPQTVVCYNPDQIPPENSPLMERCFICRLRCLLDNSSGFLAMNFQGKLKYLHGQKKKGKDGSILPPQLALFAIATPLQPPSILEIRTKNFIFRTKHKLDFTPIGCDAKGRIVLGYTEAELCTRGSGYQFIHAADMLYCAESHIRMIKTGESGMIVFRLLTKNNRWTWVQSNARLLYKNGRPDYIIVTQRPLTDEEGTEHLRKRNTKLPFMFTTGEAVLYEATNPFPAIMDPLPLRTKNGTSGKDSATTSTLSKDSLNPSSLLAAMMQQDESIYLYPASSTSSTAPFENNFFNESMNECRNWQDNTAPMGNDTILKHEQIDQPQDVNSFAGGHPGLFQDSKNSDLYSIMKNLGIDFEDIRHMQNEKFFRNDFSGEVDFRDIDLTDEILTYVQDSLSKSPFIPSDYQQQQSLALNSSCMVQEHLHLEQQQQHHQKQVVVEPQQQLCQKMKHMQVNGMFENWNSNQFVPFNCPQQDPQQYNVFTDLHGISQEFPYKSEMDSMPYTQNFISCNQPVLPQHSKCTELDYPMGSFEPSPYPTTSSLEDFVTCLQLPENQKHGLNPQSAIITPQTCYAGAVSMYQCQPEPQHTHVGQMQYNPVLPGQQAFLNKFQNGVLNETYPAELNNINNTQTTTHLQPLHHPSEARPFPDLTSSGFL
In words: AhR target gene expression by RT-PCR in A549, Calu-3, CaCo-2 and HepG32 cell lines. In kind it is cell-based. The following applies: for AhR activity at the higher 1000 M concentration: increased in CaCo-2 and HepG32 but not on Calu-3 cells. Details: endogenous in cells; host or cells: HepG2, A549, Calu-3, CaCo-2. As for the experimental part: ITE and FICZ are reference AhR agonists. Assays were performed at 4 hours post-incubation.
To further characterize the AhR agonistic potential of 1ME3CA, the ability of 3-IAld and 1ME3CA to activate target genes downstream AhR (Cyp1a1, Cyp2a1 and AhRR) in the A549 cell line derived from adenocarcinomic human alveolar basal epithelial cells, in the Calu-3 cell line derived from adenocarcinomic human bronchial epithelial cells, in the CaCo-2 cell line derived from human colon carcinoma and in the […] human liver cancer cell line was comparatively assessed. Cells were exposed to 1, 10, 100 and 1000 µM of either molecules or DMSO for 4 hours or overnight (on) at 37° C. before being assessed for the expression of the above-mentioned genes by RT-PCR.

Series [5] relates to immune-mediated colitis. In words: immune-mediated colitis in NSG mice infused with hPBMCs and treated with anti-CTLA-4 mAb. In kind it is in vivo. How it is done:
Humanized immunodeficient NSG mice were injected with human peripheral blood mononuclear cells from healthy donors and treated with anti-CTLA-4 monoclonal antibody. NOD.Cg-Prkdcscid Il2rgtm1Wjl/SzJ (NSG) mice, 8-10 weeks old, were injected intraperitoneally with human peripheral blood mononuclear cells (107) freshly isolated from healthy donors and treated intraperitoneally with 100 μg of anti-CTLA-4 mAb or human IgG as antibody control at days 0, 4, 8, 12 and 16.
3-IAld (18 mg/kg) was administered intragastrically every other day starting the day of cell infusion. Mice were monitored daily for overall mortality and body weight loss and sacrificed on day 21.

Series [6] relates to DSS+anti-CTLA-4-induced colitis. Kind of series: DSS+anti-CTLA-4-induced colitis in 8-10 wk-old Il10−/− mice. In kind it is in vivo. As for the experimental part: Il10^−/− Mice received DSS (1%) in their drinking water and 100 μg anti-CTLA-4 monoclonal antibody intraperitoneally at days 0, 4 and 8 following the DSS administration. 3-IAld-Eudragit was given (18 mg/kg 3-IAld) intragastrically every other day throughout the experiment, starting 2 days before treatment. Animals were monitored daily for body weight and inflammatory pathology in the colon until 14 days after DSS administration.

The test system of series [7] is graft-versus-host disease (GvHD). The following applies: mouse, in vivo; cited from earlier work.
For series [8] the following is noted: enteric microparticles; cited from earlier work.
For series [9] the following is noted: cited from earlier work.
For series [10], the system named is DSS-induced colitis. As to conditions: cited from earlier work.
The test system of series [11] is pathology after acute treatment with anti-CTLA-4 monoclonal antibody. Kind of series: acute anti-CTLA-4 treatment in 8-10 week-old Il10−/− mice, without DSS. In kind it is in vivo. As for the experimental part:
Il10^−/− mice were treated with anti-CTLA-4 monoclonal antibody and 3-IAld alone, as above (FIG. 6), without DSS. Animals were monitored daily for body weight and inflammatory pathology in the colon and sacrificed at 14 days after the first anti-CTLA-4 monoclonal antibody administration.

[12] abbreviates: 3-IAld 18 mg/kg intragastrically every other day, 21 days.
The mark [13] stands for this setting: 3-IAld-Eudragit 18 mg/kg, DSS 1%.

Structures are written as SMILES.

A word on the Tmax: it is the time at which the peak concentration occurs. `Cn1cc(C(=O)O)c2ccccc21` [1-methylindole-3-carboxylic acid, 1-Methyl-1H-indole-3-carboxylic acid]: the Tmax in series [1] (in vivo) was 0.5 h. The “induction of luciferase activity (RLU, fold induction) versus 3-IAld” value in [2] was “more potent inducer of luciferase activity”. Also, the “detectability at 6 hours in serum, lung, and kidneys” value in series [3] (after enteric 1ME3CA 18 mg/Kg) is recorded as “undetectable”. Besides, the Cmax values result in series [3] (after enteric 1ME3CA 18 mg/Kg, all organs and serum) is given as “very similar”. For the same compound, the “levels 24 hours after the administration in intestine, liver and brain” value in series [3] (after enteric 1ME3CA 18 mg/Kg, versus control) is “still higher than control”. The “systemic levels versus those after oral 3-IAld” value in series [3] (after oral 1ME3CA) is given as “more sustained and, as expected, significantly higher”. In series [3] (after oral 3-IAld 18 mg/Kg), the “clearance of metabolites from the organs” value is “rapid clearance”; the “concentrations in the intestine, serum, and kidney” value is on record as “basal”. For the same compound, in series [3] (mice administered with 3-IAld), the “level 24 hours after administration of 3-IAld” value was “had disappeared”. Besides, in [4], the “AhR agonistic activity versus 3-IAld (overall)” value is listed as “comparable, if not superior”; the “expression of the IDO1 and IDO2 genes” value is given as “No activity was observed”; the “AhR activity at the higher 1000 M concentration” value is reported as “inconsistent results”. The “expression of AhR-dependent Cyp1a1, Cyp2a1 and AhRR genes” value in [4] (cell lines tested, 4 hours or overnight) is given as “promoted the expression”. Moreover, in series [4] (similar concentration, i.e. 100 μM), the “extent of gene expression versus reference AhR ligands ITE or FICZ and 3-IAld” value is on record as “comparable, or even superior”.

One may read the half-life as the time in which the quantity being followed falls by half. Compound `O=Cc1c[nH]c2ccccc12` [3-IAld, 1H-indole-3-carbaldehyde] registered a half-life in series [1] (po) of 3 to 5 h. For the same compound, the “concentrations in all organs” value in [3] (after enteric 1ME3CA 18 mg/Kg) was “basal”. Moreover, in series [3] (single oral 18 mg/Kg 3-IAld, enteric microparticles, after 2 hours, most tissues), the “disappearance of 3-IAld from tissues” value is listed as “rapidly disappeared”. Moreover, the “immune-mediated colitis (overall)” value in series [5] (3-IAld 18 mg/kg) is “protects mice from immune-mediated colitis”. In addition, in [5] (setting [12]), the survival result is “increased” and the weight loss entry is listed as “reduced”. Further, in [5] (3-IAld 18 mg/kg, colon, day 21), the histology score entry is reported as “improved” and the inflammatory histopathology entry was “improved”. Moreover, in series [5] (3-IAld 18 mg/kg, day 21), the “barrier function (expression of ZO-1)” value is “restored” and the “inflammatory cytokine gene expression” value is listed as “decreased”. The “DSS+anti-CTLA-4-induced colitis (overall)” value in series [6] (3-IAld) is “protects”. In addition, the “loss of body weight” value in [6] (3-IAld-Eudragit 18 mg/kg intragastrically every other day, DSS 1%) is reported as “prevented”. Moreover, in series [6] (setting [13]), the disease activity index entry is reported as “decreased” and the “inflammatory pathology (colon)” value is given as “decreased”. In addition, in [7], the gut epithelial damage entry is reported as “limited”, the inflammatory cytokine production entry is listed as “decreased” and the transepithelial bacterial translocation result was “reduced”. Further, in [8], the “inflammatory histopathology and barrier function” value was “improved”. Moreover, in series [4], the “expression of the IDO1 and IDO2 genes” value was “No activity was observed”; the “AhR activity at the higher 1000 M concentration” value was “inconsistent results”. In series [9], the “acidity (based on its pKa)” value was “very weakly acidic” and the solubility in water entry is “slightly soluble”. Further, in [10] (intragastric administration, AhR-dependent manner), the IL-22 production result was “induced IL-22 production”. For the same compound, the “therapeutic efficacy in a murine model of dextran-induced colitis” value in series [10] (mouse, in vivo) is listed as “therapeutic efficacy”. Also, the “pathology after acute anti-CTLA-4 treatment (overall)” value in series [11] (3-IAld) was “protects”. The body weight loss entry in [11] (3-IAld as in the DSS model, 14 days) was “prevented”. Further, in series [11] (3-IAld, 14 days), the “inflammatory pathology (colon)” value is “ameliorated” and the “massive cellular infiltrate (submucosa)” value is given as “reducing”.

Values taken from patent US20250090498A1, “TREATMENT OF PRIMARY CTLA-4 CHECKPOINT RELATED IMMUNODEFICIENCIES” (ADIENNE PHARMA & BIOTECH SA, priority 2023, published 2025).
